Measured values taken from patent EP2060564A1, “Non-peptidic promoters of apoptosis” (Ludwig-Maximilians-Universität München, priority 2007, dated 2009).
“And” between values parts separate entries of the source, which are not always exact repeats. Equal entries are not always repeated.

Tests used:
[1] = tested on: Human leukemia Jurkat T cells; test: Quantification of apoptosis (Nicoletti, PI staining, flow cytometry) in Jurkat cells; format: cell-based; settings: mean value and standard deviation (C.I.95), n = 3
Method: Cell Culture. Human leukemia Jurkat T cells (clone J16), Jurkat T-cells stably transfected with either empty vector (Jurkat vector, pBabe Jurkat) or XIAP (Jurkat-XIAP) as well as the BIR-3 domain only (BIR-3-sp-RING-Jurkat) (kindly provided by Dr. Colin Duckett at the University of Michigan) were cultured (37°C and 5% CO2 in RPMI 1640 containing 2 mM L-glutamine (PAN Biotech, Aidenbach, Germany) supplemented with 10% FCS gold (PAA Laboratories, Cölbe, Germany) and 1% Pyruvat (Sigma Deisenhofen, Germany).
(§1) Detection an Quantification of Apoptosis. Quantification of apoptosis was performed according to Nicoletti et al. (J Immunol. Methods (1991) 139, 271-279). Briefly, cells were incubated for 24 h in a hypotonic buffer (0.1% sodium citrate, 0.1% Triton-X-100 and 50 µg/ml PI) and analyzed by flow cytometry on a FACSCalibur (Becton Dickinson, Heidelberg, Germany). Nuclei to the left of the G1-peak containing hypodiploid DNA were considered apoptotic.
Compounds were first tested for their apoptotic potential in Jurkat cells alone as well as in combination with sub-optimal concentrations of etoposide. […] Similar results were obtained for compound II-1 (55.8% apoptotic cells). Table 1: Percentage of apoptotic Jurkat cells measured after application of medium control, 0.75 µM etoposide, 25 µM test substance, and a mixture of 0.75 µM etoposide and 25 µM test substance, respectively.a

[2] = tested on: Jurkat cells overexpressing full-length XIAP or BIR-3/Ring; test: Quantification of apoptosis in Jurkat cell lines overexpressing XIAP or BIR-3/Ring; format: cell-based, Human; settings: wild type Jurkat cells and Jurkat cells overexpressing full-length XIAP or BIR-3/Ring; with low dose of etoposide (Figure 1)
Method: Figure 1: Compound I-1 sensitizes different Jurkat cell lines towards etoposide-induced apoptosis. Compound I-1 was tested in wildtype human leukemia Jurkat T cells (A), as well as in Jurkat cells stably transfected with empty vector (B), full-length XIAP overexpressing Jurkat cells (C) or the […] domain overexpressing Jurkat cells (D). Cell death was evaluated as described under "Materials and Methods". Bars, the mean ± SE of three independent experiments performed in triplicate. *** P<0.001 (Anova/Bonferroni), n.s., not significant.
Cell Culture. […]
as §1, with “Nuclei to the left of the G1-peak containing hypodiploid DNA were considered apoptotic.” left out

Wildtype Jurkat cells = test: Clonogenic assay; format: cell-based, Human; settings: 1h with 25µM compound and 500nM etoposide; colonies scored after 7 days (Figure 2)
Method: (§2) Figure 2: Compound I-1 sensitizes to a reduction of etoposide-induced clonogenic survival. Wild type Jurkat cells were left untreated (A) or treated for 1h with 25µM of compound I-1 (B), 500nM etoposide (C) or a combination of both (D). After replacement into fresh methylcellulose medium, cells were incubated for 7 days. Afterwards colony number was counted (E). Bars, the mean ± SE of three independent experiments. *** P<0.001 (Anova/Bonferroni). Figure 3: Compound I-1 increases initiator caspase activities. Wild type Jurkat cells were left untreated or treated with 25µM of compound I-1, 500nM etoposide or a combination of both for the indicated time periods. Fluorescence measurements were performed for caspase-9 (A) and caspase-3 (B). Protein concentration was used for normalization. Bars, the mean ± SE of three independent experiments performed in triplicate. *** P<0.001 (Anova/Bonferroni).
Clonogenic assay. Wildtype Jurkat cells were left untreated or treated for 1h with 25µM test compound, 500nM etoposide or a combination of both. Subsequently, cells were washed with PBS and resuspended in culture medium (5x10^5 cells/ml). Cell suspensions were diluted 1:10 with methylcellulose (0.52%) medium containing 40% FCS. Cells were seeded in 96-well plates (100 µl) and colonies were scored after 7 days of culture.

caspase-9 = test: Caspase-9 activity assay (Ac-LEHD-AFC substrate); format: cell-based, Human; settings: 25µM compound with 500nM etoposide, wild type Jurkat cells (Figure 3)
Method: as §2
(§3) Caspase-9/3 activity assay. Caspase-9/3 activity was measured using caspase-9(Ac-LEHD-AFC) or caspase 3(Ac-DEVD-AFC) substrates (both from Bachem AG, Bubendorf, Germany). […] The reading was performed in a plate-reading multifunction photometer (SPECTRAFLUOR PLUS, Tecan, Crailsheim, Germany). The activity was calculated from the difference between fluorescence in the 0 point and after 1h (for caspase-3) or after 3h (for caspase-9). […]

caspase-3 = test: Caspase-3 activity assay (Ac-DEVD-AFC substrate); format: cell-based, Human; settings: 25µM compound with 500nM etoposide, wild type Jurkat cells (Figure 3)
Method: as §2, §3

[3] = tested on: caspase-9, caspase-3 and PARP; test: Western Blot analysis of caspase-9, caspase-3 and PARP cleavage; format: cell-based, Human; settings: 25µM compound with 500nM etoposide, wild type Jurkat cells, time dependent (Figure 4)
Method: Figure 4: Compound I-1 activates initiator caspases and induces PARP cleavage. Wild type Jurkat cells were left untreated or treated with 25µM of compound I-1, 500nM etoposide or a combination of both for the indicated time periods. Expression of caspase-9, caspase-3 and PARP was assessed by Western Blot analysis. Cleavage products are indicated by arrows. Ponceau S was used as loading control. A representative experiment out of three independent experiments is shown.
Western Blot Analysis. Cells were collected by centrifugation, washed with ice-cold PBS and lysed in 1% Triton X-100, 0.15 M NaCl and 30 mM Tris-HCl pH 7.5 with the protease inhibitor complete™ (Roche, Mannheim, Germany) for 30 min. Lysates were centrifuge at 10,000xg for 10 min at 4°C. Equal amounts of protein were separated by SDS-PAGE (12% for XIAP) transferred to polyvinylidene difluoride membranes (Immobilon-P™, Millipore, Eschborn, Germany). Equal protein loading was controlled by coomassie staining of gels. Membranes were blocked with 5% fat-free milk powder in PBS containing 0.05% Tween-20 (1 h) and incubated with specific antibodies against XIAP (mouse antibody IgG1, clone 28, BD Transduction Laboratories, Heidelberg, Germany) overnight at 4°C. […]

XIAP = target: T1, XIAP (Homo sapiens, UniProt P98170); test: Western Blot analysis of XIAP protein level; format: cell-based; settings: 25µM compound alone as well as in combination with 500nM etoposide; 16 and 24 h (Figure 5)
T1 construct: endogenous in cells
T1 sequence (P98170 whole entry): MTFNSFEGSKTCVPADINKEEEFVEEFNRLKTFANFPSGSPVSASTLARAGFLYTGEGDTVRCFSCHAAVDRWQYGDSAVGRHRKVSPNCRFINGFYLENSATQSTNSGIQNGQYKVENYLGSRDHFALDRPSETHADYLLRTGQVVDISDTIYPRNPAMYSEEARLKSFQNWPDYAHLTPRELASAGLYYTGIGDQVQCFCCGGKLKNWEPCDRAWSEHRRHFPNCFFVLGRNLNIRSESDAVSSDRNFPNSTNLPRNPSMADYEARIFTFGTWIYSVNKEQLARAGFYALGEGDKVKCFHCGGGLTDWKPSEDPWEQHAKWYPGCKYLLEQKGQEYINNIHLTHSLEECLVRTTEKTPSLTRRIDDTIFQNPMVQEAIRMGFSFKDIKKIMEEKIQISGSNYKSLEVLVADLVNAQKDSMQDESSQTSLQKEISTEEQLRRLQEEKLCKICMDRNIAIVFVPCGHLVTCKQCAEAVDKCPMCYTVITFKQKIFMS
Method: Figure 5: XIAP protein level is reduced by compound I-1. Cells were left untreated (CO) or treated with 25µM of compound I-1, 500nM etoposide or with combination of both for the indicated time periods. XIAP protein level was detected by Western Blot analysis. Ponceau S was used as loading control. A representative experiment out of three independent experiments is shown.
Western Blot Analysis. Cells were collected by centrifugation, washed with ice-cold PBS and lysed in 1% Triton X-100, 0.15 M NaCl and 30 mM Tris-HCl pH 7.5 with the protease inhibitor complete™ (Roche, Mannheim, Germany) for 30 min. Lysates were centrifuge at 10,000xg for 10 min at 4°C. Equal amounts of protein were separated by SDS-PAGE (12% for XIAP) transferred to polyvinylidene difluoride membranes (Immobilon-P™, Millipore, Eschborn, Germany). Equal protein loading was controlled by coomassie staining of gels. Membranes were blocked with 5% fat-free milk powder in PBS containing 0.05% Tween-20 (1 h) and incubated with specific antibodies against XIAP (mouse antibody IgG1, clone 28, BD Transduction Laboratories, Heidelberg, Germany) overnight at 4°C. Specific proteins were visualized by secondary antibodies conjugated to horseradish peroxidase and the ECL Plus™ Western Blotting detection reagent (Amersham Biosciences, Freiburg, Germany). […]

[4] = Etoposide 0.75µM and Substance 25µM

SMILES | Percentage of apoptotic Jurkat cells [1, 4] | Percentage of apoptotic Jurkat cells ([1]; Substance 25µM alone) | apoptosis induced by subtoxic concentrations of etoposide [2] | clonogenic survival of etoposide treated Jurkat cells (Wildtype Jurkat cells) | caspase-9 activity induced by etoposide (caspase-9) | caspase-3 activity induced by etoposide (caspase-3) | cleavage of caspase-9 and -3 proforms as well as PARP induced by etoposide [3] | XIAP protein level (XIAP) | Percentage of apoptotic Jurkat cells ([1]; Etoposide 0.75µM alone)
CCc1cccc(CC)c1NC(=O)CN1CCC(NC(=O)c2cccc(F)c2)CC1 [Compound I-1] | 65.7% and 65.74±6.0% | 13.16±2.28% | potentiates apoptosis induced by subtoxic concentrations of etoposide | sensitizes for reduction of clonogenic survival of etoposide treated Jurkat cells | significantly increased | significantly increased | strong impact of compound I-1 on cleavage of caspase-9 and -3 proforms as well as PARP | able to reduce XIAP protein after 16 and 24 h | 
COc1cc([C@@H]2c3cc4c(cc3[C@@H](O[C@@H]3O[C@@H]5CO[C@@H](C)O[C@H]5[C@H](O)[C@H]3O)[C@H]3COC(=O)[C@H]23)OCO4)cc(OC)c1O [Etoposide, reference compound] |  |  |  |  |  |  |  |  | 30.66±9.89% and 31.31±2.74%
NNC(=O)CNC(c1ccccc1)c1cc(Br)ccc1NC(=O)c1ccccc1Br (centres unmarked) [II-1] | 55.8% and 55.82±12.23% | 10.69±1.25% |  |  |  |  |  |  | 
